Data as given in PMC10747733, “N-Substituted 2-(Benzenosulfonyl)-1-Carbotioamide Derivatives Exert Antimicrobial and Cytotoxic Effects via Aldehyde Dehydrogenase Pathway: Synthesis, In Silico and In Vitro Studies” (Pharmaceuticals, 2023).
Values after ≈ are worked out from the molar mass of the structure shown.

Experiments:
Experiment in all cases: Broth microdilution antimicrobial activity
Type in all cases: cell-based
[1] = system: Staphylococcus epidermidis ATCC 12228; settings: for MBC / MIC: ATCC12228
Text: (§1) Reference strains of microorganisms that came from American Type Culture Collection (ATCC) (Manassas, VA, USA) were used for this study. The representative Gram-positive bacteria were as follows: Staphylococcus aureus ATCC 25923, Staphylococcus aureus ATCC 29213, Staphylococcus aureus ATCC 43300, Staphylococcus epidermidis ATCC 12228, Enterococcus faecalis ATCC 29212, Micrococcus luteus ATCC 10240, Bacillus subtilis ATCC 6633 and Bacillus cereus ATCC 10876. While, those of Gram-negative bacteria were as follows: Bordetella bronchiseptica ATCC 4617, Escherichia coli ATCC 25922, Klebsiella pneumoniae ATCC 13883, Proteus mirabilis ATCC 12453, Salmonella Typhimurium ATCC 14028 and Pseudomonas aeruginosa ATCC 9027. Moreover, the following fungi belonging to yeasts were used: Candida albicans ATCC 10231, Candida albicans ATCC 2091, Candida parapsilosis ATCC 22019, Candida glabrata ATCC 90030 and Candida krusei ATCC 14243.
(§2) The new compounds WZ1–WZ4 were assayed for both antibacterial and antifungal activity using the broth microdilution method in accordance with the European Committee on Antimicrobial Susceptibility Testing (EUCAST) and Clinical and Laboratory Standards Institute (CLSI) guidelines. The microorganisms were grown at 35 °C for 18–24 h on appropriate media (nutrient agar and Sabouraud for bacteria and fungi, respectively) (BioMaxima S.A., Lublin, Poland). Next, microbial suspensions with an optical density of 0.5 McFarland standard scale (in sterile 0.85% NaCl) were prepared. In turn, the tested compounds were initially diluted at 50 mg/mL in dimethyl sulfoxide (DMSO) and the broth microdilution method was used to assess their minimum inhibitory concentrations (MICs). For these studies, selective broth Mueller-Hinton (MH) (BioMaxima S.A., Lublin, Poland) and RPMI (Roswell Park Memorial Institute) 1640 with MOPS (3-(N-Morpholino)propanesulfonic acid) (Sigma-Aldrich Chemicals, St. Louis, MO, USA) were used for bacteria and fungi, respectively. The antimicrobial effect of compounds WZ1–WZ4 was determined in the concentration range from 2000 to 0.98 µg/mL.
(§3) Then, the microbial suspensions were introduced into each well of the microplate and incubated for 18–24 h at 35 °C. […] The reference drugs ciprofloxacin or vancomycin (against bacteria) and nystatin (against fungi) (Sigma-Aldrich Chemicals, St. Louis, MO, USA) were also used. Next, the values of the minimum bactericidal concentration (MBC) and minimum fungicidal concentration (MFC) of WZ1–WZ4 were assessed. For this purpose, the cultures from each MIC determination well were transferred to a suitable solid medium and incubated under appropriate conditions. The lowest concentrations of compounds without microbial growth were read as MBC or MFC. The studies were performed in triplicate and representative data were gathered.
(§4) In turn, the MBC/MIC or MFC/MIC ratios were used to assess bactericidal/fungicidal (MBC/MIC or MFC/MIC ≤ 4) and bacteriostatic/fungistatic (MBC/MIC or MFC/MIC > 4) effect of these compounds [93].

[2] = system: Candida krusei ATCC 14243; settings: for MFC / MIC: Pichia kudriavzevii; for MFC: ATCC14243, read-out: MFC; for MIC: ATCC14243, read-out: MIC
Text: as §1, §2, §3, §4

[3] = system: Candida albicans ATCC 10231; settings: for MFC: ATCC10231, read-out: MFC; for MIC: ATCC10231, read-out: MIC
Text: as §1, §2, §3, §4

[4] = system: Pseudomonas aeruginosa ATCC 9027; settings: for MBC / MIC: ATCC9027
Text: as §1, §2, §3, §4

[5] = system: Salmonella Typhimurium ATCC 14028; settings: for MBC / MIC: Salmonella enterica
Text: as §1, §2, §3, §4

[6] = system: Bacillus cereus ATCC 10876; settings: for MBC / MIC: ATCC10876
Text: as §1, §2, §3, §4

[7] = system: Escherichia coli ATCC 25922; settings: for MBC / MIC: ATCC25922
Text: as §1, §2, §3, §4

[8] = system: Staphylococcus aureus ATCC 29213; settings: Staphylococcus aureus ATCC 29213; for MBC / MIC: ATCC29213
Text: as §1, §2, §3, §4

[9] = system: Candida albicans ATCC 2091; settings: for MFC: ATCC2091, read-out: MFC; for MIC: ATCC2091, read-out: MIC
Text: as §1, §2, §3, §4

[10] = system: Staphylococcus aureus ATCC 43300; settings: Staphylococcus aureus ATCC 43300; for MBC / MIC: ATCC43300
Text: as §1, §2, §3, §4

[11] = system: Proteus mirabilis ATCC 12453; settings: for MBC / MIC: ATCC12453
Text: as §1, §2, §3, §4

[12] = system: Candida parapsilosis ATCC 22019; settings: for MFC / MIC: Lodderomyces parapsilosis; for MFC: ATCC22019, read-out: MFC; for MIC: ATCC22019, read-out: MIC
Text: as §1, §2, §3, §4

[13] = system: Micrococcus luteus ATCC 10240; settings: for MBC / MIC: ATCC10240
Text: as §1, §2, §3, §4

[14] = system: Candida glabrata ATCC 90030; settings: for MFC / MIC: Nakaseomyces glabratus; for MFC: ATCC90030, read-out: MFC; for MIC: ATCC90030, read-out: MIC
Text: as §1, §2, §3, §4

[15] = system: Enterococcus faecalis ATCC 29212; settings: Enterococcus faecalis ATCC 29212; for MBC / MIC: ATCC29212; for MBC: read-out: MBC; for MIC: read-out: MIC
Text: as §1, §2, §3, §4

[16] = system: Klebsiella pneumoniae ATCC 13883; settings: for MBC / MIC: ATCC13883
Text: as §1, §2, §3, §4

[17] = system: Bacillus subtilis ATCC 6633; settings: for MBC / MIC: ATCC6633
Text: as §1, §2, §3, §4

[18] = system: Staphylococcus aureus ATCC 25923; settings: for MBC / MIC: ATCC25923
Text: as §1, §2, §3, §4

[19] = system: Bordetella bronchiseptica ATCC 4617; settings: for MBC / MIC: ATCC4617
Text: as §1, §2, §3, §4

## CCCCCCNC(=S)NNS(=O)(=O)c1ccccc1 [WZ3, 2-(Benzenesulfonyl)-N-Hexylhydrazine-1-Carbothioamide]
[1]
  MBC/MIC: 1
  MBC: 250 µg/mL (≈ 792 µM)
  MIC: 250 µg/mL (≈ 792 µM)
[2]
  MFC/MIC: 2
  MFC: 1000 µg/mL (≈ 3170 µM)
  MIC: 500 µg/mL (≈ 1580 µM)
[3]
  MFC/MIC: 2
  MFC: 1000 µg/mL (≈ 3170 µM)
  MIC: 500 µg/mL (≈ 1580 µM)
[4]
  MBC/MIC: 1
  MBC: 1000 µg/mL (≈ 3170 µM)
  MIC: 1000 µg/mL (≈ 3170 µM)
[5]
  MBC/MIC: > 2
  MBC: > 2000 µg/mL
  MIC: 1000 µg/mL (≈ 3170 µM)
[6]
  MBC/MIC: 1
  MBC: 250 µg/mL (≈ 792 µM)
  MIC: 250 µg/mL (≈ 792 µM)
[7]
  MBC/MIC: > 4
  MBC: > 2000 µg/mL
  MIC: 500 µg/mL (≈ 1580 µM)
[8]
  MBC: 500 µg/mL (≈ 1580 µM)
  MIC: 500 µg/mL (≈ 1580 µM)
  MBC/MIC: 1
[9]
  MFC/MIC: 2
  MFC: 1000 µg/mL (≈ 3170 µM)
  MIC: 500 µg/mL (≈ 1580 µM)
[10]
  MBC: 500 µg/mL (≈ 1580 µM)
  MIC: 250 µg/mL (≈ 792 µM)
  MBC/MIC: 2
[11]
  MBC/MIC: > 2
  MBC: > 2000 µg/mL
  MIC: 1000 µg/mL (≈ 3170 µM)
[12]
  MFC/MIC: 1
  MFC: 2000 µg/mL (≈ 6340 µM)
  MIC: 2000 µg/mL (≈ 6340 µM)
[13]
  MBC/MIC: 2
  MBC: 500 µg/mL (≈ 1580 µM)
  MIC: 250 µg/mL (≈ 792 µM)
[14]
  MFC/MIC: 1
  MFC: 2000 µg/mL (≈ 6340 µM)
  MIC: 2000 µg/mL (≈ 6340 µM)
[15]
  MBC: > 2000 µg/mL
  MIC: 500 µg/mL (≈ 1580 µM)
  MBC/MIC: > 4
[16]
  MBC/MIC: > 2
  MBC: > 2000 µg/mL
  MIC: 1000 µg/mL (≈ 3170 µM)
[17]
  MBC/MIC: 4
  MBC: 500 µg/mL (≈ 1580 µM)
  MIC: 125 µg/mL (≈ 396 µM)
[18]
  MBC/MIC: 4
  MBC: 1000 µg/mL (≈ 3170 µM)
  MIC: 250 µg/mL (≈ 792 µM)
[19]
  MBC/MIC: > 4
  MBC: > 2000 µg/mL
  MIC: 500 µg/mL (≈ 1580 µM)

## CNC(=S)NNS(=O)(=O)c1ccccc1 [WZ4, 2-(Benzenesulfonyl)-N-Methylhydrazine-1-Carbothioamide]
[1]
  MBC/MIC: 4
  MBC: 500 µg/mL (≈ 2040 µM)
  MIC: 125 µg/mL (≈ 510 µM)
[2]
  MFC/MIC: 4
  MFC: 2000 µg/mL (≈ 8150 µM)
  MIC: 500 µg/mL (≈ 2040 µM)
[3]
  MFC/MIC: 2
  MFC: 1000 µg/mL (≈ 4080 µM)
  MIC: 500 µg/mL (≈ 2040 µM)
[4]
  MBC/MIC: > 1
  MBC: > 2000 µg/mL
  MIC: > 2000 µg/mL
[5]
  MBC/MIC: > 1
  MBC: > 2000 µg/mL
  MIC: > 2000 µg/mL
[6]
  MBC/MIC: 2
  MBC: 125 µg/mL (≈ 510 µM)
  MIC: 62.5 µg/mL (≈ 255 µM)
[7]
  MBC/MIC: > 1
  MBC: > 2000 µg/mL
  MIC: > 2000 µg/mL
[8]
  MBC: > 2000 µg/mL
  MIC: 1000 µg/mL (≈ 4080 µM)
  MBC/MIC: > 2
[9]
  MFC/MIC: 4
  MFC: 1000 µg/mL (≈ 4080 µM)
  MIC: 250 µg/mL (≈ 1020 µM)
[10]
  MBC: 2000 µg/mL (≈ 8150 µM)
  MIC: 500 µg/mL (≈ 2040 µM)
  MBC/MIC: 4
[11]
  MBC/MIC: > 1
  MBC: > 2000 µg/mL
  MIC: > 2000 µg/mL
[12]
  MFC/MIC: 8
  MFC: 1000 µg/mL (≈ 4080 µM)
  MIC: 125 µg/mL (≈ 510 µM)
[13]
  MBC/MIC: 2
  MBC: 500 µg/mL (≈ 2040 µM)
  MIC: 250 µg/mL (≈ 1020 µM)
[14]
  MFC/MIC: 4
  MFC: 500 µg/mL (≈ 2040 µM)
  MIC: 125 µg/mL (≈ 510 µM)
[15]
  MBC: > 2000 µg/mL
  MIC: 1000 µg/mL (≈ 4080 µM)
  MBC/MIC: > 2
[16]
  MBC/MIC: > 1
  MBC: > 2000 µg/mL
  MIC: > 2000 µg/mL
[17]
  MBC/MIC: 16
  MBC: 2000 µg/mL (≈ 8150 µM)
  MIC: 125 µg/mL (≈ 510 µM)
[18]
  MBC/MIC: > 4
  MBC: > 2000 µg/mL
  MIC: 500 µg/mL (≈ 2040 µM)
[19]
  MBC/MIC: > 1
  MBC: > 2000 µg/mL
  MIC: > 2000 µg/mL
